Results from US9056923B2, “Mimetic peptides derived from collagen type IV and their use for treating angiogenesis- and lymphagiogenesis-dependent diseases” (THE JOHNS HOPKINS UNIVERSITY, priority 2010, dated 2015).
Entries after “also recorded” stand apart in the source; their conditions may differ. Read-outs that look alike come from different tables or passages of the source. Square brackets hold non-standard residues; d marks the D form. Peptide text beside a SMILES is read from it. Abu = CC[C@H](N)C(=O)O

What was measured:
MDA-MB-231 xenograft = assay: MDA-MB-231 orthotopic breast tumor xenograft; type: in vivo, SCID mice; conditions: for MDA-MB-231 xenograft inhibition: mice
Description: For primary tumor inhibition studies, 1−2×10^6 tumor cells were injected into 4-6 wk old female SCID mice. After the tumors reached a size of 100 mm^3 the animals were randomized into groups of 10 animals each. The animals were treated with vehicle, SP2012, SP2000, or SP2024. The peptides were administered subcutaneously daily. Dosing was continued for 3 or 4 weeks and tumor sizes were measured every 3 days using calipers. The tumor volume was estimated using the formula V=a^2b/2 where a and b are the smaller and larger diameters.
For the tumor xenograft assay, animals were housed and treated according to the approved animal protocol of the Institutional Care and Use Committee at Johns Hopkins Medical Institution (JHMI). Orthotopic breast tumors were initiated in SCID mice using MDA-MB-231 cells. 2×10^6 cells per 100 μL aliquot of single cell suspension were injected in the breast mannary fat pad. Tumors reached volumes of 75 mm^3 to 100 mm^3 in approximately 14-21 days. Mice were randomized and arranged in groups (8 mice per group) with similar tumor volumes (no statistical difference among averages) and treatment was commenced. Peptides were administered once per day intraperitoneally (i.p.) at doses of 10 mg/kg (subcutaneous delivery was also tested with certain peptides). Paclitaxel was administered at 5 mg/kg once a week, and to maintain the daily treatment regime PBS was administered on the non-treatment days. Tumors were measured every fourth day using calipers and the tumor volume was calculated using the formula V=ab^2/2, where a is the larger diameter and b is the smaller diameter.

HUVEC [1] = assay: HUVEC tube formation assay on Matrigel; type: cell-based, human; conditions: for Tube formation Inhibition (100 uM): 100 uM peptide; for Activity in Tube formation: Yes/No summary; for inhibition of tube formation (FIG. 20): high dose, 100 nM
Description: The compounds also were tested for their ability to inhibit tube formation, a process critical in angiogenesis. Endothelial cells spontaneously form a network of tubes when plated on extracts of extracellular matrix. This in vitro assay combines aspects of adhesion and migration and it is routinely used in angiogenesis research (Oliveira-Ferrer et al., 2008). The ability to inhibit tube formation is a comprehensive assessment of the anti-angiogenic potential. The protocol was described by Arnaoutova et al. (2009) and it consists of plating HUVEC on top of basement membrane extract and after incubation at 37° C. the cells naturally rearrange themselves in a network of tubes. Thus, 50 μL/well of Matrigel (BD Biosciences, San Jose, Calif.) was plated in a cold 96 well plate and incubated at 37° C. for 30 min for polymerization. 15,000 cells/well were added to the top of the gel and incubated in complete media in the presence or absence of peptide for 19 hours. Images were captured using the CCD Sensicam mounted on a Nikon microscope (Eclipse T-100). Assays were performed in at least two independent replicates and each replicate was performed using three experimental replicates and one image of a randomly chosen field was acquired per well.

HUVEC [2] = type: cell-based, human; conditions: for Adhesion Inhibition (100 uM) / Activity in Adhesion: HUVEC; for Adhesion Inhibition (100 uM): 100 uM peptide; for Activity in Adhesion: Yes/No summary, active = inhibitory potential greater than 30%; for IC50: 3 h
Description: Similar to the migration assays, the inhibition activity of the peptide in cellular adhesion was assessed using the RT-CIM technology. In this case, 25,000 cells/well were plated in 16 wells E-plates (Roche, Basel Switzerland) in the presence or absence of the peptide. The adhesion was monitored over time (3 hours) by measuring changes in the electrical impedance, which is a direct measure of the cells adhering on the electrodes. […] Assays were performed in at least two independent replicates and each replicate was performed using two experimental duplicates.

HUVEC [3] = type: cell-based, human; conditions: for Activity in Proliferation: Yes/No summary
Description: Several assays were used to test the peptides discussed in the Examples herein. A colorimetric based proliferation assay using WST-1 (Roche, 11644807001) proliferation reagent was carried out using HUVEC cells. 2000 cells/well were plated in 96-well plates and allowed to adhere overnight. On the following day, the media was exchanged with fully supplemented media containing peptides or equivalent DMSO vehicle for the controls. Three days later the media containing the peptides was replaced with serum-free EBM-2 media containing WST-1 reagent and the plates were incubated for four hours as per the manufacturer's recommendations. Changes in color, due to the formazan dye resulted from the cleavage of the tetrazolium salt WST-1 by the mitochondrial succinate-tetrazolium reductase, were read on a Victor V fluorescence plate reader (Perkin Elmer, MA) by measuring the absorbance at 450 nm Dose response curves of percent live cells (in comparison to untreated cells but incubated in complete media with 0.2% DMSO) were created. Assays were performed in at least two independent replicates and each replicate was performed using three experimental triplicates.

HUVEC [4] = assay: HUVEC migration assay (RT-CIM); type: cell-based, human; conditions: for Migration Inhibition (50 uM): 50 uM peptide; for Activity in Migration: Yes/No summary, active = inhibitory potential greater than 30%; for inhibition of migration: concentration not given
Description: The inhibitory potential of the peptides was measured using a real time migration assay system based on electrical impedance (RT-CIM, ACEA Biosciences, CA). CIM 16 well plates (Roche, 05665817001) are composed of a top and bottom chamber separated by a microporous (8 μm) polycarbonate membrane. The membrane was coated with fibronectin (20 μg/mL), and 45,000 cells/well in serum free media with or without peptides were added to the top compartment. Media with chemoattractant (i.e., fully supplemented EBM-2) was added to the bottom compartment of the chamber and the plate was incubated at 37° C. for 20 hours. The sensors integrated on the bottom side of the membrane monitor and continuously record changes in impedance as the cells move through the membrane. The RT-CIM technology allows for easy quantification of cell migration by monitoring the cell index derived from the measured impedances. Assays were performed in at least two independent replicates and each replicate was performed using two experimental duplicates.

[5] = system: VEGF mediated retinal neovascularization; assay: Rho/VEGF transgenic mice model of retinal neovascularization; type: in vivo; conditions: 0.1 μg into a mouse eye
Description: The ocular Rho/VEGF transgenic mice model of wet age-related macular degeneration also was used to test some of the peptides. Transgenic mice in which the rhodopsin promoter drives expression of VEGF in photoreceptors have the onset of VEGF production at P7 and develop extensive NV along the outer surface of the retina by P21 (Okamoto et al., 1997; To be et al., 1998). Mice hemizygous for the transgene (n=15 for each dose) were given an intraocular injection of 1 μl of PBS containing 0.01, 0.1, or 1 μg of peptide or scramble peptide in one eye at P7 and P14 and at P21 the mice were anesthetized, perfused with fluorescein-labeled dextran, and the total area of neovascularization on the outer surface of the retina was measured on retinal flat mounts by image analysis as above.

[6] = system: choroidal neovascularization; assay: Laser-induced choroidal neovascularization model; type: in vivo, C57BL/6 mice; conditions: 0.1 μg into a mouse eye
Description: The ocular laser-induced choroidal neovascularization (NV) model of wet age-related macular degeneration was used for testing. 5-6-week-old female pathogen-free C57BL/6 mice were anesthetized with ketamine hydrochloride (100 mg/kg body weight) and pupils were dilated. Laser photocoagulation (75-μm spot size, 0.1-sec duration, 120 mW) was performed in the 9, 12, and 3 o'clock positions of the posterior pole of each eye with the slit lamp delivery system of an OcuLight GL diode laser (Iridex, Mountain View, Calif.) and a handheld cover slip as a contact lens to view the retina. Production of a tissue bubble by the laser, which indicates rupture of Bruch's membrane, is an important factor in obtaining choroidal NV; therefore, only burns in which a bubble is produced are included in the study. […] At day 7 the mice that received the naked peptides were dosed again whereas the mice that received the particles were administered PBS. Intravitreous injections were done under a dissecting microscope with a Harvard Pump Microinjection System and pulled glass micropipettes. After 14 days, the mice were perfused with 1 mL of PBS containing 50 mg/mL of fluorescein-labeled dextran (2×10^6 Daltons average molecular weight; Sigma-Aldrich, St. Louis, Mo.) and choroidal flat mounts were examined by fluorescence microscopy. Images were captured with a Nikon Digital Still Camera DXM1200 (Nikon Instruments Inc., New York, N.Y.). Image analysis software (Image-Pro Plus; Media Cybernetics, Silver Spring, Md.) was used to measure the total area of choroidal NV at each rupture site with the investigator masked with respect to treatment group.

Molecule | suppression of tumor growth (MDA-MB-231 xenograft; MDA-MB-231 xenograft in mice, 10 mg/kg daily) | microvascular density (MDA-MB-231 xenograft; after completion of the treatment at 21 days) | MDA-MB-231 xenograft inhibition (MDA-MB-231 xenograft) | Tube formation Inhibition (100 uM) (HUVEC [1]) | Adhesion Inhibition (100 uM) (HUVEC [2]) | IC50 (HUVEC [3]) | Migration Inhibition (50 uM) (HUVEC [4]) | Activity in Tube formation (HUVEC [1]) | inhibition of tube formation (FIG. 20) (HUVEC [1]) | Activity in Adhesion (HUVEC [2]) | Activity in Proliferation (HUVEC [3]; HUVEC) | Activity in Migration (HUVEC [4]) | inhibition of migration (HUVEC [4]) | IC50 (HUVEC [2]) | inhibition of proliferation (HUVEC [3]; HUVEC) | IC50 (HUVEC [3]; HUVEC, tables 5, 8-10 and text, read-out: IC50 ± 95% CI (μM), proliferation) | area of retinal neovascularization in the Rho/VEGF model [5] | laser-induced choroidal neovascularization [6] | Proliferation Inhibition (IC50 in uM) (HUVEC [3]; HUVEC, summary tables 2-4, 6, 7)
CC[C@H](C)[C@H](NC(=O)[C@H](CC(N)=O)NC(=O)[C@H](CS)NC(=O)[C@H](Cc1ccccc1)NC(=O)[C@H](CCSC)NC(=O)[C@H](Cc1ccccc1)NC(=O)[C@@H]1CCCN1C(=O)[C@H](CCSC)NC(=O)[C@@H](NC(=O)[C@H](CO)NC(=O)[C@H](Cc1ccccc1)NC(=O)[C@H](CCCNC(=N)N)NC(=O)[C@H](CCCNC(=N)N)NC(=O)[C@@H](N)CC(C)C)[C@@H](C)O)C(=O)N[C@@H](CC(N)=O)C(=O)N[C@@H](CC(N)=O)C(=O)N[C@H](C(=O)N[C@@H](CS)C(=O)N[C@@H](CC(N)=O)C(=O)N[C@@H](Cc1ccccc1)C(N)=O)C(C)C [SP2000, reference compound] (H-LRRFSTMPFMFCNINNVCNF-NH2; N-terminus assumed) | tumor growth was inhibited | statistically different from one another | Active | Complete | 95% | 15.5 µM | 80% |  |  |  |  |  |  |  |  |  |  |  | 
CC[C@H](NC(=O)[C@H](Cc1ccccc1)NC(=O)[C@H](CCSC)NC(=O)[C@H](Cc1ccccc1)NC(=O)[C@@H]1CCCN1C(=O)[C@H](CCSC)NC(=O)[C@@H](NC(=O)[C@@H](N)CO)[C@@H](C)O)C(=O)N[C@@H](CC(N)=O)C(=O)N[C@H](C(=O)N[C@@H](CC(N)=O)C(=O)N[C@@H](CC(N)=O)C(=O)N[C@H](C(=O)N[C@@H](CC)C(=O)N[C@@H](CC(N)=O)C(=O)N[C@@H](Cc1ccccc1)C(=O)O)C(C)C)[C@@H](C)CC [SP2011, STMPFMFAbuNINNVAbuNF-OH] (H-STMPFMF[Abu]NINNV[Abu]NF-OH; N-terminus assumed) |  |  | Active | Partial | 0% | 51.4 µM | Inactive | No | no activity in tube formation | Yes | No | No | inactive in the migration assay |  |  |  |  |  | 
CC[C@H](C)[C@H](NC(=O)[C@H](CC(N)=O)NC(=O)[C@@H](NC(=O)[C@H](Cc1ccccc1)NC(=O)[C@@H](C)NC(=O)[C@H](Cc1ccccc1)NC(=O)[C@@H]1CCCN1C(=O)[C@H](CCSC)NC(=O)[C@@H](NC(=O)[C@H](CO)NC(=O)[C@H](Cc1ccccc1)NC(=O)[C@H](CCCNC(=N)N)NC(=O)[C@H](CCCNC(=N)N)NC(=O)[C@@H](N)CC(C)C)[C@@H](C)O)[C@@H](C)CC)C(=O)N[C@@H](CC(N)=O)C(=O)N[C@@H](CC(N)=O)C(=O)N[C@H](C(=O)N[C@H](C(=O)N[C@@H](CC(N)=O)C(=O)N[C@@H](Cc1ccccc1)C(N)=O)[C@@H](C)CC)C(C)C [SP2034, LRRFSTMPFdAFININNVINF] |  |  |  |  |  |  |  | Yes |  | Yes | Yes | Yes |  | 550 ± 370 nM | improved by two orders of magnitude | 0.54 ± 0.19 µM | inhibited | inhibited laser-induced choroidal neovascularization | 
CC[C@H](C)[C@H](NC(=O)[C@H](CC(N)=O)NC(=O)[C@@H](NC(=O)[C@H](Cc1ccccc1)NC(=O)[C@H](C)NC(=O)[C@H](Cc1ccccc1)NC(=O)[C@@H]1CCCN1C(=O)[C@H](CCSC)NC(=O)[C@@H](NC(=O)[C@H](CO)NC(=O)[C@H](Cc1ccccc1)NC(=O)[C@H](CCCNC(=N)N)NC(=O)[C@H](CCCNC(=N)N)NC(=O)[C@@H](N)CC(C)C)[C@@H](C)O)[C@@H](C)CC)C(=O)N[C@@H](CC(N)=O)C(=O)N[C@@H](CC(N)=O)C(=O)N[C@H](C(=O)N[C@H](C(=O)N[C@@H](CC(N)=O)C(=O)N[C@@H](Cc1ccccc1)C(N)=O)[C@@H](C)CC)C(C)C [SP2035] |  |  |  |  |  |  |  | Yes |  | Yes | Yes | Yes |  | 2510 ± 880 nM |  |  | inhibited | inhibited laser-induced choroidal neovascularization | 
NINNVAbuNF (NINNVXNF; Abu non-natural residue; Artificial sequence based on the human Collagen Type IV protein) [SP2009] |  |  |  | Partial | 0% |  | 55% | Yes | displayed activity in inhibiting tube formation | No | No | Yes | inhibitory activity; also recorded: active in migration |  |  |  |  |  | Inactive
